# Measured values: paper PMC5758648, “Anti-glioma Natural Products Downregulating Tumor Glycolytic Enzymes from Marine Actinomycete Streptomyces sp. ZZ406” (Scientific Reports, 2018)
# Entries after “also recorded” stand apart in the source; their conditions may differ. Where a SMILES comes first, the peptide text is derived from it.
# Tests used:
# [1] = Stability in human liver microsomes; type: in vitro ADME; settings: 37 °C; for Percentage compared to the zero time point: human liver microsomes; on Percentage compared to the zero time point: tested at 12.5 µg/mL
# Method: Therefore, it is interesting to understand the stability of compound 1 in human liver microsomes. Human liver microsomes were incubated with compound 1 at 37 °C in a water bath and the concentration of 1 at designed time points of 0, 15, 30, 60, 90, 120, 180, 240, and 360 min was determined by HPLC analysis. The results (Table 2 and Fig. 6) indicated the concentration of 1 had no change after the incubation of 30 min. The percentage of 1 was 98.4% (30 min), 70.2% (60 min), 65.3% (90 min), 54.8% (120 min), 35.5% (180 min), 28.2 (240 min), and 19.4% (360 min) when compared to 100.0% (0 min). The data indicated 1 was very stable in human liver microsomes in the first 30 min incubation with concentration gradually decreasing after the incubation of 30 min.
# Compound 1 was dissolved in 100 mM NaPO4 solution (pH 7.4) to make a sample solution with a final concentration of 125 μg/mL. Human liver microsomes were diluted by 100 mM NaPO4 solution (pH 7.4) to make liver microsomal solution with a concentration of 1.25 mg/mL. A mixture of the sample solution (90 μL) and the liver microsomal solution (720 μL) was mixed well and then pre-incubated at 37 °C for 7 min. The pre-incubated mixture was initiated by adding 90 μL 10 mM NADPH solution, mixed well, and then incubated at 37 °C in a water bath. At each designed time point of 0, 15, 30, 60, 90, 120, 180, 240 and 360 min, aliquot 80 μL of the incubated mixture was pipette by micropipet and then quenched by the addition of 320 μL methanol. The reaction mixture was centrifuged at 12000 rpm for 10 min at 5 °C to give the supernatant, which was submitted to HPLC analysis.
# human glioma U87MG cells = assay: SRB antiproliferative assay, U87MG glioma cells; type: cell-based; settings: for Selectivity index (CC50/IC50), U87MG: CC50 in HA / IC50 in U87MG; for IC50: Homo sapiens, U-87 MG, SRB assay, mean ± s.d., n = 3
# Method: (§1) Doxorubicin (DOX, a chemotherapeutic drug) was used as a positive control.
# The procedure of the preparation of crude extract for bioactive assay was described in the previous publication. The crude extract was made to a concentration of 1.0 mg/mL. Sulforhodamine B (SRB) assay was used to evaluate the activity of the crude extract against the proliferation of glioma U87MG cells.
# (§2) Sulforhodamine B (SRB) assay as described in previous studies[19],[20] was used to determine the activity of tested compounds inhibiting the proliferation of glioma U87MG, U251, SHG44 cells, and normal human astrocytes (HA). Doxorubicin (DOX) was used as a positive control (CON).
# human glioma U251 cells = assay: SRB antiproliferative assay, U251 glioma cells; type: cell-based; settings: for Selectivity index (CC50/IC50), U251: CC50 in HA / IC50 in U251; for IC50: Homo sapiens, U-251, SRB assay, mean ± s.d., n = 3
# Method: as §1, §2
# [2] = tested on: human glioma U87MG, U251 and SHG44 cells; assay: SRB antiproliferative assay, results summarised over the glioma cell lines; type: cell-based; settings: for IC50: Homo sapiens, Glioma cell, range over U87MG, read-out: IC50 values against different glioma cells (range); for Activity in inhibiting the proliferation of glioma cells: U87MG
# Method: as §1, §2
# human glioma SHG44 cells = assay: SRB antiproliferative assay, SHG44 glioma cells; type: cell-based; settings: for Selectivity index (CC50/IC50), SHG44: CC50 in HA / IC50 in SHG44; for IC50: Homo sapiens, SHG-44, SRB assay, mean ± s.d., n = 3
# Method: as §1, §2
# [3] = SRB cytotoxicity assay, normal human astrocytes; type: cell-based; settings: normal human astrocytes (HA), mean ± s.d., n = 3
# Method: as §1, §2
# LDH5 = assay: Western blot, LDH5 expression in U87MG cells; type: cell-based, human; settings: 48 h, 1 at 30 μM, 2 at 60 μM, western blot vs blank control
# Method: (§3) The active compounds 1 and 2 were further assayed for their effects on the expression levels of important tumor glycolytic enzymes (regulators) of HK2, PFKFB3, PKM2, and LDH5. […] Therefore, the effects of 1 and 2 on the expressions of these regulators in U87MG cells were evaluated. 2-Deoxyglucose (2-DG, a hexokinase inhibitor)[8], was used as a positive control. The U87MG cells were treated by 1 (30.0 μM), 2 (60.0 μM), or 2-DG (6.0 mM) for 48 h. Protein prepared from the compound-treated U87MG cells was subjected to western blot analysis. […] The full-length blots of Fig. 5 were provided as supplementary information (Fig. S61).
# (§4) Figure 5 The expression levels of HK2, PFKFB3, PKM2, and LDH5 in glioma U87MG cells. U87-MG cells were treated with compounds 1 (30 μM), 2 (60 μM), or 2-DG (6.0 mM) for 48 h. Protein extracted from the compound-treated cells was subjected to western blot analysis.
# (§5) Western blot analysis was used to detect the expression levels of tumor glycolytic regulators HK2, PFKFB3, PKM2, and LDH5. The detailed procedure, including protein sample preparation, determination of protein concentration, and western blot analysis, was described in the previous publication.
# PFKFB3 = assay: Western blot, PFKFB3 expression in U87MG cells; type: cell-based, human; settings: 48 h, 1 at 30 μM, 2 at 60 μM, western blot vs blank control
# Method: as §3, §4, §5
# HK2 = assay: Western blot, HK2 expression in U87MG cells; type: cell-based, human; settings: 48 h, 1 at 30 μM, 2 at 60 μM, western blot vs blank control
# Method: as §3, §4, §5
# PKM2 = assay: Western blot, PKM2 expression in U87MG cells; type: cell-based, human; settings: 48 h, 1 at 30 μM, 2 at 60 μM, western blot vs blank control
# Method: as §3, §4, §5
# [4] = tested on: human glioma U87MG, U251 and SHG44 cells; set-up: method as in PMID 28049552; settings: cited from earlier work
# glioma = tested on: glioma; set-up: method as in PMID 20128807, PMID 15747063, PMID 29056497; settings: cited from earlier work
compound,measurement,setting,value
"O=C(O)c1cc(CO)c2c(c1)C(=O)c1cccc(O)c1C2=O [Compound 1, 1-hydroxymethyl-8-hydroxy-anthraquinone-3-carboxylic acid]",Stability in human liver microsomes,[1],good stability
same,Concentration in human liver microsomes,[1]; 0 min,12400 ng/mL
same,Concentration in human liver microsomes,[1]; 15 min,12000 ng/mL
same,Concentration in human liver microsomes,[1]; 30 min,12200 ng/mL
same,Concentration in human liver microsomes,[1]; 60 min,8700 ng/mL
same,Concentration in human liver microsomes,[1]; 90 min,8100 ng/mL
same,Concentration in human liver microsomes,[1]; 120 min,6800 ng/mL
same,Concentration in human liver microsomes,[1]; 180 min,4400 ng/mL
same,Concentration in human liver microsomes,[1]; 240 min,3500 ng/mL
same,Concentration in human liver microsomes,[1]; 360 min,2400 ng/mL
same,"Stability in human liver microsomes, first 30 min",[1]; first 30 min incubation,very stable
same,Percentage compared to the zero time point,[1]; 0 min,100.0%
same,Percentage compared to the zero time point,[1]; 15 min,96.8%
same,Percentage compared to the zero time point,[1]; 30 min,98.4%
same,Percentage compared to the zero time point,[1]; 60 min,70.2%
same,Percentage compared to the zero time point,[1]; 90 min,65.3%
same,Percentage compared to the zero time point,[1]; 120 min,54.8%
same,Percentage compared to the zero time point,[1]; 180 min,35.5%
same,Percentage compared to the zero time point,[1]; 240 min,28.2%
same,Percentage compared to the zero time point,[1]; 360 min,19.4%
same,"Selectivity index (CC50/IC50), U87MG",human glioma U87MG cells,> 21.3
same,IC50,human glioma U87MG cells,4.7 ± 0.2 µM
same,"Selectivity index (CC50/IC50), U251",human glioma U251 cells,> 17.5
same,IC50,human glioma U251 cells,5.7 ± 0.3 µM
same,IC50,[2],4.7 to 8.1 µM
same,"Selectivity index (CC50/IC50), SHG44",human glioma SHG44 cells,> 12.3
same,IC50,human glioma SHG44 cells,8.1 ± 0.4 µM
same,CC50,[3],> 100 µM
same,Expression level of LDH5,LDH5,clearly reduced; also recorded: remarkably reduced
same,Expression level of PFKFB3,PFKFB3,clearly reduced; also recorded: remarkably reduced
same,Expression level of HK2,HK2,clearly reduced; also recorded: remarkably reduced
same,Expression level of PKM2,PKM2,clearly reduced; also recorded: remarkably reduced
"Cc1cc(=O)c2c(CC(=O)C[C@@H](O)CC(=O)O)cccc2o1 [Compound 2, 5-(2′-oxo-4′R-hydroxy-hexanoic acid)-2-methyl-chromone]","Selectivity index (CC50/IC50), U87MG",human glioma U87MG cells,> 3.8
same,IC50,human glioma U87MG cells,25.7 ± 2.4 µM
same,"Selectivity index (CC50/IC50), U251",human glioma U251 cells,> 4.6
same,IC50,human glioma U251 cells,21.6 ± 1.7 µM
same,IC50,[2],21.6 to 25.8 µM
same,"Selectivity index (CC50/IC50), SHG44",human glioma SHG44 cells,> 3.8
same,IC50,human glioma SHG44 cells,25.8 ± 3.1 µM
same,CC50,[3],> 100 µM
same,Expression level of LDH5,LDH5,clearly reduced; also recorded: remarkably reduced
same,Expression level of PFKFB3,PFKFB3,clearly reduced; also recorded: remarkably reduced
same,Expression level of HK2,HK2,clearly reduced; also recorded: remarkably reduced
same,Expression level of PKM2,PKM2,clearly reduced; also recorded: remarkably reduced
"CC(=O)N[C@@H](CC(C)C)C(=O)N[C@@H](CO)C(=O)N[C@@H](C)C(=O)O [Compound 3, N-acetyl-L-leucine-L-serine-L-alanine] (Ac-Leu-Ser-Ala-OH)",Activity in inhibiting the proliferation of glioma cells,[2],inactive
"CC(=O)N1CC(C(=O)O)CN1C(=O)C(C)C (stereo not drawn) [Compound 4, 1-acetyl-2-isobutyrylpyrazolidine-4-carboxylic acid]",Activity in inhibiting the proliferation of glioma cells,[2],inactive
"Cc1cc(O)c2c(c1)C(=O)c1cccc(O)c1C2=O [Compound 5, chrysophanol]",IC50,human glioma U87MG cells,0.5 ± 0.1 µM
same,IC50,human glioma U251 cells,1.2 ± 0.1 µM
same,IC50,[2],0.5 to 3 µM
same,IC50,human glioma SHG44 cells,3 ± 0.2 µM
"Cc1c(C(=O)O)c(O)cc2c1C(=O)c1c(O)cccc1C2=O [Compound 6, 3,8-dihydroxy-1-methyl-anthraquinone-2-carboxylic acid]",IC50,human glioma U87MG cells,10.4 ± 0.5 µM
same,IC50,human glioma U251 cells,13 ± 0.6 µM
same,IC50,[2],10.4 to 36.3 µM
same,IC50,human glioma SHG44 cells,36.3 ± 0.2 µM
"CC(C)[C@@H]1NC(=O)[C@H](C)OC(=O)[C@@H](C(C)C)NC(=O)[C@@H](C(C)C)OC(=O)[C@H](C(C)C)NC(=O)[C@H](C)OC(=O)[C@@H](C(C)C)NC(=O)[C@@H](C(C)C)OC(=O)[C@H](C(C)C)NC(=O)[C@H](C)OC(=O)[C@@H](C(C)C)NC(=O)[C@@H](C(C)C)OC1=O [Compound 11, valinomycin]",Activity in inhibiting the proliferation of different glioma cells,[4],showed activity
"COc1cccc2c1C(=O)c1c(O)c3c(c(O)c1C2=O)C[C@@](O)(C(=O)CO)C[C@@H]3O[C@H]1C[C@H](N)[C@H](O)[C@H](C)O1 [DOX, Doxorubicin, reference compound]","Selectivity index (CC50/IC50), U87MG",human glioma U87MG cells,4.6
same,IC50,human glioma U87MG cells,1.9 ± 0.4 µM
same,"Selectivity index (CC50/IC50), U251",human glioma U251 cells,0.9
same,IC50,human glioma U251 cells,9.6 ± 1.3 µM
same,IC50,[2],1.9 to 9.6 µM
same,"Selectivity index (CC50/IC50), SHG44",human glioma SHG44 cells,3.5
same,IC50,human glioma SHG44 cells,2.5 ± 1.1 µM
same,CC50,[3],8.7 ± 1.2 µM
O=C1c2cccc(O)c2C(=O)c2c(O)cc(CO)cc21 [aloe emodin],Activity against glioma,glioma,reported to have activity against glioma
O=C(O)c1cc(O)c2c(c1)C(=O)c1cccc(O)c1C2=O [rhein],Activity against glioma,glioma,reported to have activity against glioma
SZ-685C,Activity against glioma,glioma,reported to have activity against glioma
